This passage reports GI50 and TGI results from PubChem BioAssay (NCI).

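Test compounds were applied to cells in 96-well plates for 48 hours at 5 doses. GI50 is the concentration that inhibits growth by half. At the TGI there is no net growth.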

Among the test systems are HCT-116 colon; HS 578T breast; M14 melanoma; MALME-3M melanoma; MDA-MB-435; NCI-H23 lung; OVCAR-8 ovarian; SF-268 CNS; T-47D breast; UACC-62 melanoma.
Experiment in all cases: growth of human tumour cells (NCI), 48 h

As for `COc1cccc(/C=C/C(=O)c2ccc(SC)cc2)c1OC`, the GI50 is 4.35 µM in the assay with HCT-116 colon; 25.3 µM in the assay with HS 578T breast; 17.2 µM in the assay on M14 melanoma; 16.7 µM with MALME-3M melanoma; 17.8 µM with MDA-MB-435; 14.6 µM in the assay on NCI-H23 lung. In addition, the GI50 in the assay on OVCAR-8 ovarian is 12.7 µM; with SF-268 CNS it was 20.2 µM; with T-47D breast, 11.6 µM; in the assay with UACC-62 melanoma it was 10.8 µM. Further, the TGI in the assay on HCT-116 colon was 15.4 µM; in the assay with HS 578T breast, 56.6 µM; with M14 melanoma, 31.1 µM; in the assay with MALME-3M melanoma, 34.7 µM; in the assay on MDA-MB-435, 35.3 µM; in the assay on NCI-H23 lung it was 28.2 µM. Further, the TGI in the assay on OVCAR-8 ovarian came to 25.6 µM; in the assay on SF-268 CNS, 42.3 µM; in the assay on T-47D breast, 35.2 µM; with UACC-62 melanoma, 23.8 µM.

Consider `CC(C)N1CCN(c2ccncc2S(=O)(=O)N2CCCCC2)CC1`, for which the TGI in the assay on HCT-116 colon, with HS 578T breast, in the assay on M14 melanoma, in the assay with MALME-3M melanoma, with MDA-MB-435 and in the assay on NCI-H23 lung was more than 100 µM throughout. Further, the TGI with OVCAR-8 ovarian, in the assay with SF-268 CNS, with T-47D breast and with UACC-62 melanoma was more than 100 µM throughout.
